Like-named read-outs stand apart in the source and are kept apart here.
Key:
GLP-1R = GLP-1R (Homo sapiens, UniProt P43220); assay: HitHunter cAMP assay (GLP-1R); type: cell-based; settings: for Emax: read-out: (Emax) GLP-1R; for EC50: EC50 GLP-1R/nM
In short: (§1)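 Suspension cells (10,000/well) in HBSS with 10 mM HEPES, 625 μM IBMX, 0.2% BSA exposed to 22-point 2-fold agonist series in duplicate for 30 min at room temperature. cAMP measured by antibody immunocompetition with overnight development, luminescence read-out.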

GIP-R = target: T1, GIP-R (Homo sapiens, UniProt P48546); assay: HitHunter cAMP assay (GIP-R); type: cell-based; settings: for Emax: read-out: (Emax) GIP-R; for EC50: EC50 GIP-R/nM
T1 sequence (P48546 22-466): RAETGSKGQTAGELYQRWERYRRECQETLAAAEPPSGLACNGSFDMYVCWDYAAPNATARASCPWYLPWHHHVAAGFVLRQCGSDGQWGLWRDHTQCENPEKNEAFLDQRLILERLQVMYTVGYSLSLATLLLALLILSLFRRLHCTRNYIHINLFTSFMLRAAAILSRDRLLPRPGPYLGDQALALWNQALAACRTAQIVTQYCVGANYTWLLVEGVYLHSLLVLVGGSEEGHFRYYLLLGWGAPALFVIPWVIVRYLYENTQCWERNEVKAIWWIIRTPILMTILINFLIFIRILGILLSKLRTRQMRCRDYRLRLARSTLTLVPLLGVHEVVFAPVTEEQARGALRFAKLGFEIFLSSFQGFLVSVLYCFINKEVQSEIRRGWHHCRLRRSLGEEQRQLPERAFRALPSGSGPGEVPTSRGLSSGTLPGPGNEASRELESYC
In short: as §1

GLP-1R, sequence (P43220 24-463): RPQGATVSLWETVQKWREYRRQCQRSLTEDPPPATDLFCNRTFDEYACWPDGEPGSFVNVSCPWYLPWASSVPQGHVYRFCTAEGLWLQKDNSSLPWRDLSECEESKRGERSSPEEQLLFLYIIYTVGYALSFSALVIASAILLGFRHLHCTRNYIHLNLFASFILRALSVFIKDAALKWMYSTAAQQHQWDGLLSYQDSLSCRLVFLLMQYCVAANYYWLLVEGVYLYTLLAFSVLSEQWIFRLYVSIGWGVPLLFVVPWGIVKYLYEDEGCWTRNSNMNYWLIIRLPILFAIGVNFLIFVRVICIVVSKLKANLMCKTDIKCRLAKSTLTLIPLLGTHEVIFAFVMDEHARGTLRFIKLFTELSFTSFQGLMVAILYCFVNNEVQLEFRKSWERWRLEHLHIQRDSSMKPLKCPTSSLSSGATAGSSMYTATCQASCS

Row | Structure (SMILES) | Emax (GLP-1R) | Emax (GIP-R) | Emax (GLP-1R; Table 3, cAMP) | Emax (GLP-1R; Table 3A, cAMP) | Emax (GIP-R; Table 3, cAMP) | Emax (GIP-R; Table 3A, cAMP) | EC50 (GLP-1R; Table 3, cAMP) | EC50 (GLP-1R; Table 3A, cAMP) | EC50 (GIP-R; Table 3, cAMP) | EC50 (GIP-R; Table 3A, cAMP)
1 | CC[C@H](C)[C@H](NC(=O)[C@H](CO)NC(=O)[C@H](Cc1ccc(O)cc1)NC(=O)[C@H](CC(=O)O)NC(=O)[C@H](CO)NC(=O)[C@@H](NC(=O)[C@H](Cc1ccccc1)NC(=O)[C@@H](NC(=O)CNC(=O)[C@H](CCC(=O)O)NC(=O)CSCC(=O)NCCn1ccc(C(F)(F)F)cc1=O)[C@@H](C)O)[C@@H](C)O)C(=O)N[C@@H](Cc1ccc(O)cc1)C(=O)N[C@@H](CC(C)C)C(=O)N[C@@H](CC(=O)O)C(=O)N[C@@H](CCCCN)C(=O)N[C@@H](CCC(N)=O)C(=O)N[C@@H](C)C(=O)N[C@@H](C)C(=O)NC(C)(C)C(=O)N[C@@H](CCC(=O)O)C(=O)N[C@@H](Cc1ccccc1)C(=O)N[C@H](C(=O)N[C@@H](CC(N)=O)C(=O)N[C@@H](Cc1c[nH]c2ccccc12)C(=O)N[C@@H](CC(C)C)C(=O)N[C@@H](CC(C)C)C(=O)N[C@@H](C)C(=O)NCC(=O)NCC(=O)N1CCC[C@H]1C(=O)N[C@@H](CO)C(=O)N[C@@H](CO)C(=O)NCC(=O)N[C@@H](C)C(=O)N1CCC[C@H]1C(=O)N1CCC[C@H]1C(=O)N1CCC[C@H]1C(=O)N[C@@H](CO)C(=O)N[C@@H](CCCCN)C(N)=O)C(C)C [Compound 121] | 90% | 27% |  |  |  |  |  |  |  | 
2 | CCCCCCCCCCCCCCCC(=O)N[C@@H](CCC(=O)NCCCC[C@H](NC(=O)[C@H](CO)NC(=O)[C@@H]1CCCN1C(=O)[C@@H]1CCCN1C(=O)[C@@H]1CCCN1C(=O)[C@H](C)NC(=O)CNC(=O)[C@H](CO)NC(=O)[C@H](CO)NC(=O)[C@@H]1CCCN1C(=O)CNC(=O)CNC(=O)[C@H](C)NC(=O)[C@H](CC(C)C)NC(=O)[C@H](CC(C)C)NC(=O)[C@H](Cc1c[nH]c2ccccc12)NC(=O)[C@H](CC(N)=O)NC(=O)[C@@H](NC(=O)[C@H](Cc1ccccc1)NC(=O)[C@H](CCC(=O)O)NC(=O)C(C)(C)NC(=O)[C@H](C)NC(=O)[C@H](C)NC(=O)[C@H](CCC(N)=O)NC(=O)[C@H](CCCCN)NC(=O)[C@H](CC(=O)O)NC(=O)[C@H](CC(C)C)NC(=O)[C@H](Cc1ccc(O)cc1)NC(=O)[C@@H](NC(=O)[C@H](CO)NC(=O)[C@H](Cc1ccc(O)cc1)NC(=O)[C@H](CC(=O)O)NC(=O)[C@H](CO)NC(=O)[C@@H](NC(=O)[C@H](Cc1ccccc1)NC(=O)[C@@H](NC(=O)CNC(=O)[C@H](CCC(=O)O)NC(=O)CSCC(=O)NCCN1C(=O)[C@@H](C)[C@H](C)C1=O)[C@@H](C)O)[C@@H](C)O)[C@@H](C)CC)C(C)C)C(N)=O)C(=O)O (single isomer, unassigned) [Compound 63] |  |  | 91% | 91% | 24% | 24% |  |  |  | 
3 | CC[C@H](C)[C@H](NC(=O)[C@H](CO)NC(=O)[C@H](Cc1ccc(O)cc1)NC(=O)[C@H](CC(=O)O)NC(=O)[C@H](CO)NC(=O)[C@@H](NC(=O)[C@H](Cc1ccccc1)NC(=O)[C@@H](NC(=O)CNC(=O)[C@H](CCC(=O)O)NC(=O)CCCCCCCN1C(=O)CSC1=O)[C@@H](C)O)[C@@H](C)O)C(=O)N[C@@H](Cc1ccc(O)cc1)C(=O)N[C@@H](CC(C)C)C(=O)N[C@@H](CC(=O)O)C(=O)N[C@@H](CCCCN)C(=O)N[C@@H](CCC(N)=O)C(=O)N[C@@H](C)C(=O)N[C@@H](C)C(=O)NC(C)(C)C(=O)N[C@@H](CCC(=O)O)C(=O)N[C@@H](Cc1ccccc1)C(=O)N[C@H](C(=O)N[C@@H](CC(N)=O)C(=O)N[C@@H](Cc1c[nH]c2ccccc12)C(=O)N[C@@H](CC(C)C)C(=O)N[C@@H](CC(C)C)C(=O)N[C@@H](C)C(=O)NCC(=O)NCC(=O)N1CCC[C@H]1C(=O)N[C@@H](CO)C(=O)N[C@@H](CO)C(=O)NCC(=O)N[C@@H](C)C(=O)N1CCC[C@H]1C(=O)N1CCC[C@H]1C(=O)N1CCC[C@H]1C(=O)N[C@@H](CO)C(=O)N[C@@H](CCCCN)C(N)=O)C(C)C [Compound 175] |  |  | 87 to 94% | 87 to 94% | 38% | 38% | 10 to 100 nM | 10 to 100 nM | 10 to 100 nM | 10 to 100 nM
4 | CC[C@H](C)[C@H](NC(=O)[C@H](CO)NC(=O)[C@H](Cc1ccc(O)cc1)NC(=O)[C@H](CC(=O)O)NC(=O)[C@H](CO)NC(=O)[C@@H](NC(=O)[C@H](Cc1ccccc1)NC(=O)[C@@H](NC(=O)CNC(=O)[C@H](CCC(=O)O)NC(=O)CSCC(=O)NCCN1C(=O)[C@H]2C[C@H]2C1=O)[C@@H](C)O)[C@@H](C)O)C(=O)N[C@@H](Cc1ccc(O)cc1)C(=O)N[C@@H](CC(C)C)C(=O)N[C@@H](CC(=O)O)C(=O)N[C@@H](CCCCN)C(=O)N[C@@H](CCC(N)=O)C(=O)N[C@@H](C)C(=O)N[C@@H](C)C(=O)NC(C)(C)C(=O)N[C@@H](CCC(=O)O)C(=O)N[C@@H](Cc1ccccc1)C(=O)N[C@H](C(=O)N[C@@H](CC(N)=O)C(=O)N[C@@H](Cc1c[nH]c2ccccc12)C(=O)N[C@@H](CC(C)C)C(=O)N[C@@H](CC(C)C)C(=O)N[C@@H](C)C(=O)NCC(=O)NCC(=O)N1CCC[C@H]1C(=O)N[C@@H](CO)C(=O)N[C@@H](CO)C(=O)NCC(=O)N[C@@H](C)C(=O)N1CCC[C@H]1C(=O)N1CCC[C@H]1C(=O)N1CCC[C@H]1C(=O)N[C@@H](CO)C(=O)N[C@@H](CCCCN)C(N)=O)C(C)C [Compound 109] |  |  | 101% | 101% | 36% | 36% | 1 to 10 nM | 1 to 10 nM | 10 to 100 nM | 10 to 100 nM
5 | CCCCCCCCCCCCCCCC(=O)N[C@@H](CCC(=O)NCCCC[C@H](NC(=O)[C@H](CO)NC(=O)[C@@H]1CCCN1C(=O)[C@@H]1CCCN1C(=O)[C@@H]1CCCN1C(=O)[C@H](C)NC(=O)CNC(=O)[C@H](CO)NC(=O)[C@H](CO)NC(=O)[C@@H]1CCCN1C(=O)CNC(=O)CNC(=O)[C@H](C)NC(=O)[C@H](CC(C)C)NC(=O)[C@H](CC(C)C)NC(=O)[C@H](Cc1c[nH]c2ccccc12)NC(=O)[C@H](CC(N)=O)NC(=O)[C@@H](NC(=O)[C@H](Cc1ccccc1)NC(=O)[C@H](CCC(=O)O)NC(=O)C(C)(C)NC(=O)[C@H](C)NC(=O)[C@H](C)NC(=O)[C@H](CCC(N)=O)NC(=O)[C@H](CCCCN)NC(=O)[C@H](CC(=O)O)NC(=O)[C@H](CC(C)C)NC(=O)[C@H](Cc1ccc(O)cc1)NC(=O)[C@@H](NC(=O)[C@H](CO)NC(=O)[C@H](Cc1ccc(O)cc1)NC(=O)[C@H](CC(=O)O)NC(=O)[C@H](CO)NC(=O)[C@@H](NC(=O)[C@H](Cc1ccccc1)NC(=O)[C@@H](NC(=O)CNC(=O)[C@H](CCC(=O)O)NC(=O)CSCC(=O)NCCN1C(=O)CCC(c2ccccc2)C1=O)[C@@H](C)O)[C@@H](C)O)[C@@H](C)CC)C(C)C)C(N)=O)C(=O)O (mixture of isomers) [Compound 95] |  |  | 84% | 84% | 20% | 20% | 10 to 100 nM | 10 to 100 nM | 1 to 10 nM | 10 to 100 nM

From patent publication US20260176320A1, “MODULATORS OF G-PROTEIN COUPLED RECEPTORS” (priority 2018, published 2026)
